# Patent US8871738B2, “Fused bicyclic oxazolidinone CETP inhibitor” (Merck Sharp & Dohme Corp., priority 2011, dated 2014)
# Target: endogenous CETP from serum (Homo sapiens (Human), UniProt P11597)
# Assay: RTA assay in 95% human serum (CETP-catalyzed CE and TG transfer, endogenous CETP)
# Assay type: biochemical
# Details: RTA assay in 95% human serum; read-out: IC50
# Sequence of endogenous CETP from serum (P11597 18-493 limits assumed): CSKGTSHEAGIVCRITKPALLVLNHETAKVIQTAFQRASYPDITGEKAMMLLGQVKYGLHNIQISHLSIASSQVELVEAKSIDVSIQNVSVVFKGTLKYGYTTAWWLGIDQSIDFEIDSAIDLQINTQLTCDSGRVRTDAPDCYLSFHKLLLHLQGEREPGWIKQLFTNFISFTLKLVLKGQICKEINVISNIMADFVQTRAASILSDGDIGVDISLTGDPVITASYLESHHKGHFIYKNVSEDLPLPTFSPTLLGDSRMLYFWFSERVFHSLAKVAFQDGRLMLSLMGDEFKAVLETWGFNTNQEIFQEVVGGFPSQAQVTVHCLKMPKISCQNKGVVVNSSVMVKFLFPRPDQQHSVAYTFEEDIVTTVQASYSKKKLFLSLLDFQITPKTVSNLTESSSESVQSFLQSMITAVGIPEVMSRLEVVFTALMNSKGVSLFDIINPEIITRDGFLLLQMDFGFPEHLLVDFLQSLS
row,SMILES,IC50 [µM]
1,"COc1cc(F)c(CCC(=O)O)cc1-c1ccc(C(F)(F)F)cc1[C@@H]1CCC[C@H]2[C@@H](c3cc(C(F)(F)F)cc(C(F)(F)F)c3)OC(=O)N12 [Example 46, 3-[2′-{(1R,5S,8aS)-1-[3,5-bis(trifluoromethyl)phenyl]-3-oxohexahydro[1,3]oxazolo[3,4-a]pyridin-5-yl}-4-fluoro-6-methoxy-4′-(trifluoromethyl)biphenyl-3-yl]propanoic acid]",1.63
2,"COc1ccc(-c2ccc(C(=O)O)cc2C)cc1-c1ccc(N(C)C)nc1[C@@H]1C=C[C@H]2[C@@H](c3cc(C(F)(F)F)cc(C(F)(F)F)c3)OC(=O)N12 [Example 47, 3′-[2-{(1R,5S,7aS)-1-[3,5-bis(trifluoromethyl)phenyl]-3-oxo-5,7a-dihydro-1H-pyrrolo[1,2-c][1,3]oxazol-5-yl}-6-(dimethylamino)pyridin-3-yl]-4′-methoxy-2-methylbiphenyl-4-carboxylic acid]",0.491
3,"COc1cc(F)c(C(C)C)cc1-c1cnc(N(C)C)nc1[C@@H]1C=C[C@H]2[C@@H](c3cc(C(F)(F)F)cc(C(F)(F)F)c3)OC(=O)N12 [Example 48, (1R,5S,7aS)-1-[3,5-bis(trifluoromethyl)phenyl]-5-{2-(dimethylamino)-5-[4-fluoro-2-methoxy-5-(1-methylethyl)phenyl]pyrimidin-4-yl}-5,7a-dihydro-1H-pyrrolo[1,2-c][1,3]oxazol-3-one]",0.695
4,"COc1cc(F)c(C(C)C)cc1-c1cnc(N(C)C)cc1[C@@H]1C=C[C@H]2[C@@H](c3cc(C(F)(F)F)cc(C(F)(F)F)c3)OC(=O)N12 [Example 49, (1R,5S,7aS)-1-[3,5-bis(trifluoromethyl)phenyl]-5-{2-(dimethylamino)-5-[4-fluoro-2-methoxy-5-(1-methylethyl)phenyl]pyridin-4-yl}-5,7a-dihydro-1H-pyrrolo[1,2-c][1,3]oxazol-3-one]",0.438
5,"COc1cc(F)c(-c2ccc(C(=O)O)cc2C)cc1-c1ccc(C(F)(F)F)cc1[C@@H]1C=C[C@H]2[C@@H](c3cc(C(F)(F)F)cc(C(F)(F)F)c3)OC(=O)N12 [Example 50, 2″-{(1R,5S,7aS)-1-[3,5-bis(trifluoromethyl)phenyl]-3-oxo-5,7a-dihydro-1H-pyrrolo[1,2-c][1,3]oxazol-5-yl}-6′-fluoro-4′-methoxy-2-methyl-4″- (trifluoromethyl)-1,1′:3′,1″- terphenyl-4-carboxylic acid]",0.0479
6,"COc1cc(F)c(C(C)C)cc1-c1ccc(C(F)(F)F)cc1[C@@H]1C=C[C@H]2[C@@H](c3cc(C(F)(F)F)cc(C(F)(F)F)c3)OC(=O)N12 [Example 51, (1R,5S,7aS)-1-[3,5-bis(trifluoromethyl)phenyl]-5-[4′-fluoro-2′-methoxy-5′-(1-methylethyl)-4-(trifluoromethyl)biphenyl-2-yl]-5,7a-dihydro-1H-pyrrolo[1,2-c][1,3]oxazol-3-one]",0.122
7,"COc1ccc(C2CCC(C(=O)O)CC2)cc1-c1ccc(C(F)(F)F)cc1[C@@H]1CC[C@H]2[C@@H](c3cc(C)cc(C(F)(F)F)c3)OC(=O)N12 (stereo partly drawn) [Example 52, 4-[6-methoxy-2′-{(1R,5S,7aS)-1-[3-methyl-5-(trifluoromethyl)phenyl]-3-oxotetrahydro-1H-pyrrolo[1,2-c][1,3]oxazol-5-yl}-4′-(trifluoromethyl)biphenyl-3-yl]cyclohexanecarboxylic acid]",0.26
8,"COc1cc(F)c(-c2ccc(C(=O)O)cc2C)cc1-c1cnc(C(F)(F)F)cc1[C@@H]1CC[C@H]2[C@@H](c3cc(C(F)(F)F)cc(C(F)(F)F)c3)OC(=O)N12 [Example 53, 5′-[4-{(1R,5S,7aS)-1-[3,5-bis(trifluoromethyl)phenyl]-3-oxotetrahydro-1H-pyrrolo[1,2-c][1,3]oxazol-5-yl}-6-(trifluoromethyl)pyridin-3-yl]-2′-fluoro-4′-methoxy-2-methylbiphenyl-4-carboxylic acid]",0.191
9,"COc1ncc(-c2ccc(C(=O)O)cc2C)cc1-c1ccc(C(F)(F)F)cc1[C@@H]1CC[C@H]2[C@@H](c3cc(C)cc(C(F)(F)F)c3)OC(=O)N12 [Example 55, 4-{6-methoxy-5-[2-{(1R,5S,7aS)-1-[3-methyl-5-(trifluoromethyl)phenyl]-3-oxotetrahydro-1H-pyrrolo[1,2-c][1,3]oxazol-5-yl}-4-(trifluoromethyl)phenyl]pyridin-3-yl}-3-methylbenzoic acid]",0.085
10,"COc1ncc(-c2c(C)cc(C(=O)O)cc2C)cc1-c1ccc(C(F)(F)F)cc1[C@@H]1CC[C@H]2[C@@H](c3cc(C(F)(F)F)cc(C(F)(F)F)c3)OC(=O)N12 [Example 56, 4-{5-[2-{(1R,5S,7aS)-1-[3,5-bis(trifluoromethyl)phenyl]-3-oxotetrahydro-1H-pyrrolo[1,2-c][1,3]oxazol-5-yl}-4-(trifluoromethyl)phenyl]-6-methoxypyridin-3-yl}-3,5-dimethylbenzoic acid]",0.047
11,"COc1ccc([C@@H]2C[C@@H](O)[C@@H](O)C2)cc1-c1ccc(C(F)(F)F)cc1[C@@H]1CC[C@H]2[C@@H](c3cc(C(F)(F)F)cc(C(F)(F)F)c3)OC(=O)N12 [Example 58, (1R,5S,7aS)-1-[3,5-bis(trifluoromethyl)phenyl]-5-{5′-[(1s,3R,4S)-3,4-dihydroxycyclopentyl]-2′-methoxy-4-(trifluoromethyl)biphenyl-2-yl}tetrahydro-1H-pyrrolo[1,2-c][1,3]oxazol-3-one]",0.418
12,"Cc1cc(C(=O)O)ccc1-c1cnc(C)c(-c2ccc(C(F)(F)F)cc2[C@@H]2CC[C@H]3[C@@H](c4cc(C(F)(F)F)cc(C(F)(F)F)c4)OC(=O)N23)c1 [Example 66, 4-{5-[2-{(1R,5S,7aS)-1-[3,5-bis(trifluoromethyl)phenyl]-3-oxotetrahydro-1H-pyrrolo[1,2-c][1,3]oxazol-5-yl}-4-(trifluoromethyl)phenyl]-6-methylpyridin-3-yl}-3-methylbenzoic acid]",1.29
13,"COc1ncc(-c2ccc(C(=O)O)cc2C)cc1-c1ccc(C(F)(F)F)cc1[C@@H]1C=C[C@H]2[C@@H](c3cc(C(F)(F)F)cc(C(F)(F)F)c3)OC(=O)N12 [Example 67, 4-(5-(2-((1R,5S,7aS)-1-(3,5-bis(trifluoromethyl)phenyl)-3-oxo-1,3,5,7a-tetrahydropyrrolo[1,2-c]oxazol-5-yl)-4-(trifluoromethyl)phenyl)-6-methoxypyridin-3-yl)-3-methylbenzoic acid]",0.199
14,"COc1ccc(-c2ccc(C(=O)O)cc2C)cc1-c1ncc(C(F)(F)F)cc1[C@@H]1C=C[C@H]2[C@@H](c3cc(C(F)(F)F)cc(C(F)(F)F)c3)OC(=O)N12 [Example 68, 3′-(3-((1R,5S,7aS)-1-(3,5-bis(trifluuoromethyl)phenyl)-3-oxo-1,3,5,7a-tetrahydropyrrolo[1,2-c]oxazol-5-yl)-5-(trifluoromethyl)pyridin-2-yl)-4′-methoxy-2-methyl-[1,1′-biphenyl]-4-carboxylic acid]",0.424
15,"COc1ncc(-c2ccc(C(=O)O)cc2C)cc1-c1ncc(C(F)(F)F)cc1[C@@H]1C=C[C@H]2[C@@H](c3cc(C(F)(F)F)cc(C(F)(F)F)c3)OC(=O)N12 [Example 69, 4-(3-((1R,5S,7aS)-1-(3,5-bis(trifluoromethyl)phenyl)-3-oxo-1,3,5,7a-tetrahydropyrrolo[1,2-c]oxazol-5-yl)-2′-methoxy-5-(trifluoromethyl)-[2,3′-bipyridin]-5′-yl)-3-methylbenzoic acid]",0.456
16,"COc1ncc(-c2c(C)cc(C(=O)O)cc2C)cc1-c1ncc(C(F)(F)F)cc1[C@@H]1CC[C@H]2[C@@H](c3cc(C(F)(F)F)cc(C(F)(F)F)c3)OC(=O)N12 [Example 70, 4-[3-{(1R,5S,7aS)-1-[3,5-bis(trifluoromethyl)phenyl]-3-oxotetrahydro-1H-pyrrolo[1,2-c][1,3]oxazol-5-yl}-2′-methoxy-5-(trifluoromethyl)-2,3′-bipyridin-5′-yl]-3,5-dimethylbenzoic acid]",0.751
17,"COc1ccc([C@@H]2CC(=O)N[C@H]2C)cc1-c1ccc(C(F)(F)F)cc1[C@@H]1CC[C@H]2[C@@H](c3cc(C(F)(F)F)cc(C(F)(F)F)c3)OC(=O)N12 [Example 76, (1R,5S,7aS)-1-[3,5-bis(trifluoromethyl)phenyl]-5-{2′-methoxy-5′-[(2S,3S)-2-methyl-5-oxopyrrolidin-3-yl]-4-(trifluoromethyl)biphenyl-2-yl}tetrahydro-1H-pyrrolo[1,2-c][1,3]oxazol-3-one]",0.466

# Same assay, conditions: RTA assay, 95% human serum; read-out: RTA (95% HS)
row,SMILES,IC50 [µM]
1,"COc1ccc(CCc2n[nH]c(=O)o2)cc1-c1ccc(C(F)(F)F)cc1[C@@H]1CCC[C@H]2[C@@H](c3cc(C(F)(F)F)cc(C(F)(F)F)c3)OC(=O)N12 [Example 80, (1R,5S,8aS)-1-[3,5-bis(trifluoromethyl)phenyl]-5-{2′-methoxy-5′-[2-(5-oxo-4,5-dihydro-1,3,4-oxadiazol-2-yl)ethyl]-4-(trifluoromethyl)biphenyl-2-yl}hexahydro[1,3]oxazolo[3,4-a]pyridin-3-one]",0.942
2,"COc1ccc(CCc2nnc(N)o2)cc1-c1ccc(C(F)(F)F)cc1[C@@H]1CCC[C@H]2[C@@H](c3cc(C(F)(F)F)cc(C(F)(F)F)c3)OC(=O)N12 [Example 82, (1R,5S,8aS)-5-{5′-[2-(5-amino-1,3,4-oxadiazol-2-yl)ethyl]-2′-methoxy-4-(trifluoromethyl)biphenyl-2-yl}-1-[3,5-bis(trifluoromethyl)phenyl]hexahydro[1,3]oxazolo[3,4-a]pyridin-3-one]",1.32

# Test system: not given
# Assay: not given
# Details: patients treated with anacetrapib along with baseline statin therapy compared with just a statin; cited from earlier work
SMILES,decrease of LDL-C [%],increase of HDL-C [%]
COc1cc(F)c(C(C)C)cc1-c1ccc(C(F)(F)F)cc1CN1C(=O)O[C@H](c2cc(C(F)(F)F)cc(C(F)(F)F)c2)[C@@H]1C [anacetrapib],40,138
